How the values were obtained:
[1] = formulation containing 10%, daily 2 mg/cm^2 for a week, cited from earlier work
[2] = Urine samples collected 2007-2009 from Californian females; type: in vivo, human; details: from 22.9 ng/mL to 200 ng/mL
Method: Since the first day of sunscreen usage in 1930s, the exposure to sunscreen agents has begun. Initially, the scope and frequency of the sunscreen usage among the human population were very limited. Therefore, the levels of UV filters found in human samples were usually low. However, for the last 20 years, the situation changed dramatically. In one epidemiological study conducted in 2003-2004, 2517 urine samples from United States general population were analyzed for the presence of oxybenzone (benzophenone-3, bp-3), as part of the 2003-2004 National Health and Nutrition Examination Survey [A. M. Calafat, L. Y. Wong, X. YE, J. A. Reidy, L. L. Needham, Concentrations of the sunscreen agent benzophenone-3 in residents of the United States: National Health and nutrition Examination Survey 2003-2004, Environ. Health Perspect, 116 (2008) 893-897]. Oxybenzone was detected in 97% of the all samples with mean concentration of 22.9 ng/ml and 95th percentile concentration of 1040 ng/ml. As the data indicates, the sunscreen agent occurrences are wide spread. […] 543 (2016) 28-36]. […] About nine times higher than previously reported levels of oxybenzone (up to 13000 ng/ml, average around 200 ng/ml) were found in urine samples collected in 2007-2009 from Californian females, which is probably a result of specific demographics [C. […]

[3] = 2517 urine samples, 2003-2004; cited from earlier work
[4] = Californian females, 2007-2009; cited from earlier work
[5] = maternal urine, gestational weeks 6-30; cited from earlier work
[6] = couples, samples 2005-2009; cited from earlier work
[7] = 4-Methoxy-benzylamine formulation mice skin penetration test (plasma level by HPLC); type: in vivo; details: topical on mouse back
Method: Mice Test Procedures: • 1. […] The 12 mice were randomly divided into two groups. […] Add methanol and acetonitrile 200 μL, respectively. […] Precisely transfer the supernatant solution to another test tube. At 40° C. blow N2 through to dryness. […] Supernatant solution was used directly for HPLC analysis. • 4.

Structure (SMILES) | maximum plasma concentration, females [1] [ng/mL] | mean urine concentration, females [1] [ng/mL] | maximum plasma concentration, males [1] [ng/mL] | mean urine concentration, males [1] [ng/mL] | increase of average concentration in urine sample compared to 2003-2004 study [2] | 95th percentile concentration in urine [3] [ng/mL] | mean concentration in urine [3] [ng/mL] | share of urine samples in which detected [3] [%] | average level in urine samples [4] | highest level in urine samples [4] | correlation of maternal urinary levels with overall weight and head circumference of the baby [5] | rank among urinary benzophenone-type UV filters in the study population [6] | skin penetration in mice [7]
Cc1ccc(C=C2C(=O)C3(C)CCC2C3(C)C)cc1 (stereo not drawn) [4-methylbenzylidene camphor] | 20 | 5 | 20 | 7 |  |  |  |  |  |  |  |  | 
COc1ccc(C(=O)c2ccccc2)c(O)c1 [oxybenzone, 2-hydroxy-4-methoxybenzophenone] | 200 | 60 | 300 | 140 | more than 9 folds | 1040 | 22.9 | 97 | around 200 ng/ml | up to 13000 ng/ml | positively correlated | most predominant | 
CCCCC(CC)COC(=O)C=Cc1ccc(OC)cc1 (stereo not drawn) [octyl methoxycinnamate] | 10 | 5 | 2 | 8 |  |  |  |  |  |  |  |  | 
COc1ccc(CN)cc1 [4-methoxy-benzylamine] |  |  |  |  |  |  |  |  |  |  |  |  | could not penetrate the skin of mice

Reference: patent US11229590B2, “Sunscreen formulation” (priority 2018, dated 2022)
